For experiment [1], the system named is MDA-MB-453 xenograft tumors. Nature of the experiment: MDA-MB-453 xenograft tumor growth in mice. Type of experiment: in vivo. The note with it: 10 mg/kg, 3 times per week from Day 14 for three weeks, NSG mice. The protocol: All experiments involving mice were carried out according to protocols approved by the Institutional Animal Care and Use Committee at Cornell University. In all cases, 6-8 week old female NOD.Cg-Prkdcscid Il2rg^tm1Wjl/SzJ (NSG) mice (The Jackson Laboratory) were used. For xenograft experiments, a suspension of MDA-MB-453 breast cancer cells (or derivative cell lines stably expressing shRNAs) was mixed 1:1 with Matrigel Matrix (BD Biosciences) to give a final concentration of 3×10^6 cells per 100 μl, and 3×10^6 cells were immediately injected into each of the two flanks of 6-8 week old female NOD.Cg-Prkdc^scid Il2rg^tm1Wjl/SzJ (NSG) mice (n=3 mice per condition). Tumor sizes were measured using calipers, and estimated volumes were calculated using the formula V=(π/6)×length×width^2, as described previously (Tomayko et al., “Determination of Subcutaneous Tumor Size in Athymic (Nude) Mice,” Cancer Chemother Pharmacol. 24:148-154 (1989), which is hereby incorporated by reference in its entirety). For experiments using MDA-MB-453 cells stably expressing shRNAs, mice were sacrificed after 6 weeks. For 968 treatment studies, when tumors of 1-2 mm diameter were detected, the mice were randomly divided into two groups and intraperitoneal (IP) injections of 968 (10 mg/kg) solution or carrier solution were initiated and carried out three times weekly. […]

Experiment [2] concerns TSE cells stably expressing GLS2. Nature of the experiment: 6-day cell proliferation assay, TSE stably expressing GLS2. Type of experiment: cell-based, human. The protocol:
(§1) Culture medium was added to 12-well plates (1 ml/well) and wells were seeded with cells at Day 0 as follows. MCF7, T-47D, BT-474, HCC38 cells: […] cells/well. MDA-MB-453 and MDA-MB-231 cells: 1×10^4 cells/well. TSE and Hs 578T cells: 0.3×10^4 cells/well. After 16 hours, culture medium was replaced with fresh medium supplemented with appropriate concentrations of inhibitors and was subsequently replaced every 48 hours. On Day 6 cells were trypsinized and suspended in an appropriate volume of culture medium, and the total number of cells per well was determined using a hemocytometer or a TC20 Automated Cell Counter (Bio-Rad).
(§2) Vectors for expressing human GAC or GLS2 in breast cancer cell lines were based on pCDNA3.1/V5-His TOPO (Thermo Fisher Scientific), with the appropriate gene sub-cloned in and the tag switched to HA-tag or myc-tag for immunofluorescence experiments. Vectors pQE80-GAC-72-598 and pQE80-GLS2-38-602, for expressing the processed forms of human GAC (residues 72 to 598) or GLS2 (residues 38 to 602) in E. coli, were described in Huang et al., “Characterization of the Interactions of Potent Allosteric Inhibitors with Glutaminase C, a Key Enzyme in Cancer Cell Glutamine Metabolism,” J. Biol. Chem. 293:3535-3545 (2018), which is hereby incorporated by reference in its entirety.
(§3) For 60 mm dish format. 0.2 ml Opti-MEM (Gibco) containing […] of the appropriate DNA construct, along with 0.2 ml Opti-MEM containing 12 μl Lipofectamine 2000 (Invitrogen), were separately incubated at room temperature for 5 min. The two solutions were combined and incubated for an additional 20 min, mixed with 1.6 ml culture medium and added to cells. After 5 hours incubation at 37° C. the transfection mixture was replaced with fresh culture medium, and cells were then incubated for an additional 48 hours to allow for ectopic expression of GLS or GLS2. To select for cells stably expressing the DNA construct, culture medium supplemented with 500 μg/ml G-418 disulfate (Research Products International) was added and replaced every 2 days for 2-3 weeks until isolated colonies ˜2 mm in diameter were present. Individual colonies were transferred to a 12-well plate (1 colony per well) using sterile blotting paper soaked in trypsin solution and were then cultured in medium supplemented with 250 μg/ml G-418 disulfate. All colonies were screened by western blot for ectopic expression, and positive clones were maintained in medium supplemented with 250 μg/ml G-418 disulfate.

Experiment [3] relates to MDA-MB-231 cells stably expressing GLS2. Briefly: 6-day cell proliferation assay, MDA-MB-231 stably expressing GLS2. Format: cell-based, human. How it is done:
as §1, §2, §3

For the next experiment, the system named is MDA-MB-453 cells. Nature of the experiment: 6-day cell proliferation assay, MDA-MB-453. The settings on record: MDA-MB-453, proliferation over 6 days. Type of experiment: cell-based, human. How it is done:
Human breast cancer cell lines MCF7, BT-474, T-47D, MDA-MB-453, MDA-MB-231, Hs 578T, HCC38, SK-BR-3, and DU4475 were purchased from the American Type Culture Collection (ATCC) and no additional cell authentication was performed. The TSE human breast cancer cell line was supplied by Dr. Steven Abcouwer (University of Michigan). All breast cancer cells were cultured at 37° C. under a 5% CO2 atmosphere in RPMI 1640 medium containing 2 mM glutamine (Gibco) and supplemented with 10% fetal bovine serum (FBS) (Gibco). The 293T cell line (ATCC) used for generating lentivirus particles was cultured as above but using DMEM, high glucose (Gibco).
as §1

Experiment [4] deals with TSE cells carrying the plasmid vector only. Briefly: 6-day cell proliferation assay, TSE vector only. Format: cell-based, human. The note with it: 6 days. How it is done:
as §1, §2
For 60 mm dish format. […]

Setting [5] is: MDA-MB-231 GLS2 clone 1, 6 days.
The mark [6] stands for this setting: MDA-MB-231 GLS2 clone 2, 6 days.

The term EC50 denotes the concentration giving half of the maximal effect. A lower EC50 goes with a more potent agent.

Where only a bound is given, the exact number is not on record here.

Turning to `O=C(Cc1ccccc1)Nc1nnc(CCSCCc2nnc(NC(=O)Cc3ccccc3)s2)s1` [BPTES], the tumor growth result in experiment [1] was “did not significantly impact tumor growth”. Further, the EC50 in experiment [2] (TSE GLS2 clone 1, 6 days) is greater than 20 µM; in experiment [2] (TSE GLS2 clone 2, 6 days) it was greater than 20 µM; in experiment [2] (TSE with ectopic expression of GLS2, 6 days) it was greater than 20 µM; in experiment [3] (setting [5]), greater than 20 µM; in experiment [3] (setting [6]) it was greater than 20 µM; in experiment [3] (MDA-MB-231 with ectopic expression of GLS2, 6 days), greater than 20 µM. Besides, the EC50 was roughly 20 µM with MDA-MB-453 cells and 4 µM in experiment [4].
`CN(C)c1ccc(C2Nc3ccc4ccccc4c3C3=C2C(=O)CC(C)(C)C3)cc1Br` (stereo not shown) [Compound 968]: the tumor growth entry in experiment [1] is “robustly inhibited”. For the same compound, the EC50 in experiment [2] (TSE GLS2 clone 1, 6 days) was 7 µM; in experiment [2] (TSE GLS2 clone 2, 6 days), 6 µM; in experiment [3] (setting [5]), 4 µM; in experiment [3] (setting [6]), 5 µM; in the experiment with MDA-MB-453 cells, 3 µM; in experiment [4] it was 2 µM.

Source of the values: patent US20250275964A1, “METHODS OF INHIBITING LIVER-TYPE GLUTAMINASE, GLS2” (CORNELL UNIVERSITY, priority 2019, published 2025).
